From patent publication US20250241901A1, “ACTIVATION OF MNRR1 / CHCHD2 AS A THERAPEUTIC TARGET FOR MITOCHONDRIA ASSOCIATED DISORDERS” (Wayne State University, priority 2024, published 2025)

How the values were obtained:
[1] = tested on: intra-amniotic LPS-induced preterm labor and birth; experiment: Murine model of intra-amniotic LPS-induced preterm labor and birth; format: in vivo, mouse
Description: FIGS. 2A-2F. Nitazoxanide prevents preterm delivery and improves neonatal mortality in vivo. (FIG. 2A) Schematic illustration depicting the administration of nitazoxanide (marketed under the commercial name Alinia) and LPS in the murine model of preterm birth. (FIG. 2B) Gestational length of mice was obtained using video-monitoring until delivery (n=6-8 animals). (FIG. 2C) Neonatal mortality was determined by calculating the number of dead pups over total litter size (n=6-8 animals). […] No pups from LPS-injected dams survived beyond week 0 of birth. (FIG. 2E) MNRR1 transcript levels were measured in mouse decidual tissue (17.5 dpc). Actin was used as a housekeeping gene to normalize expression (n=4 animals for all except PBS+N, where n=3). (FIG. 2F) Equal amounts of whole placental lysates were separated on an SDS-PAGE gel and probed for MNRR1 levels. Actin was used as a loading control. Gel is representative of data obtained from 2 animals. Keyfor FIGS. 2B, 2C, and 2E: PBS, phosphate buffered saline injection; LPS, lipopolysaccharide injection; PBS+N, PBS injection with oral gavage of nitazoxanide; LPS+N, LPS injection with oral gavage of nitazoxanide. Significance: *, p<0.05; **, p<0.01.
Animal model of intra-amniotic LPS-induced preterm labor and birth: Nitazoxanide (Alinia®; ROMARK, Tampa, FL, USA) was dissolved in sterile injectable water. The nitazoxanide volume was mouse weight dependent (100 μL of nitazoxanide solution at 200 mg/kg was administered for every mouse weight of 10 g). […] Dams were anesthetized on 16.5 dpc by inhalation of 2-3% (Fluriso™ (Isoflurane, USP), Vetone Boise, ID, USA) and 1-2 L/min of oxygen in an induction chamber. Anesthesia was maintained with a mixture of 1.5-2% isoflurane and 1.5-2 L/min of oxygen. Dams were positioned on a heating pad and stabilized with adhesive tape. Fur removal from the abdomen and thorax was performed by applying Nair cream (Church & Dwight Co., Inc., Ewing, NJ, USA) to those areas. Body temperature was detected with a rectal probe (VisualSonics Inc., Toronto, Ontario, Canada) and maintained in the range of 37±1° C. Respiratory and heart rates were monitored by electrodes embedded in the heating pad. An ultrasound probe was fixed and mobilized with a mechanical holder, and the transducer was slowly moved toward the abdomen. […] Following injection, dams were monitored by using a video camera with infrared light (Sony) until delivery. Video monitoring allowed for determination of gestational length, which was calculated from the presence of the vaginal plug (0.5 dpc) until the observation of the first pup in the cage bedding. […] The rates of neonatal mortality at birth were calculated as the number of pups found dead among the total litter size. […]

[2] = tested on: inflammatory factors such as ll6, ll1b, Tnf, and Tlr4; experiment: High-throughput RT qPCR of inflammatory factors in decidua; format: in vivo, mouse; conditions: LPS-injected dams
Description: FIGS. 3A & 3B. The transcript levels of several inflammatory factors such as 116, Illb, Tnf, and Tlr4, among others, were assessed in the decidual samples and increased expression was found in dams intra-amniotically injected with LPS that was abrogated upon treatment with nitazoxanide.
High-throughput RT qPCR: This was performed as previously described (Motomura et al., JCI Insight, 7, 2022). Briefly, total RNA was isolated from decidua with RNeasy Mini Kits (Qiagen), according to the manufacturer's instructions. RNA concentrations, purity, and integrity were evaluated with the NanoDrop 8000 spectrophotometer (Thermo Scientific, Wilmington, DE, USA) and the Bioanalyzer 2100 (Agilent Technologies, Wilmington, DE, USA). cDNA was synthesized by using SuperScript IV VILO Master Mix (Invitrogen by Thermo Fisher Scientific Baltics UAB, Vilnius, Lithuania). Gene expression profiling of the tissues was performed on the BioMark System for high-throughput RT-qPCR (Fluidigm, San Francisco, CA, USA) or the ABI 7500 Fast real-time PCR system (Applied Biosystems, Life Technologies Corporation, Pleasanton, CA, USA) with the TaqMan gene expression assays (Applied Biosystems, Life Technologies Corporation). […] Data were normalized by using multiple reference genes (Gusb, Hsp90abl, Gapdh, and Actb) averaged within each sample, and relative changes in transcript levels were calculated by the AACt method. […]

[3] = 200 mg/kg oral gavage, intra-amniotic LPS 16.5 dpc

CC(=O)Oc1ccccc1C(=O)Nc1ncc([N+](=O)[O-])s1 [nitazoxanide, Nitazoxanide]
neonatal mortality at birth ([1]; 200 mg/kg oral gavage, LPS-injected dams, compared to controls): significantly reduced | LPS-induced preterm birth (delivery <18.5 dpc) [1, 3]: preventing LPS-induced preterm birth (delivery <18.5 days post coitum (dpc)) in all pregnant dams | gestational age [1, 3]: extended | neonates surviving up to 3 weeks ([1]; neonates born to LPS-injected dams treated with nitazoxanide): almost one-half | LPS-increased transcript levels of inflammatory factors in decidual samples [2]: abrogated
